Results taken from US20210015793A1, “COMPOUNDS FOR TREATING CNS- AND NEURODEGENERATIVE DISEASES” (ETH ZURICH, priority 2018, published 2021).

Tests used:
[1] = test system: rats subjected to the CUMS protocol; experiment: Sucrose preference test (anhedonia) in rats subjected to CUMS; type: in vivo, rat; conditions: treated during CUMS
Experimental: The following stimuli were administered each week in a random order: two periods (7 h and 17 h) of 45° cage tilt; soaked cage for 17 h; food deprivation (24 h) and water deprivation (12 h), twice a week; paired housing (17 h); overnight illumination during the dark phase, twice a week; noise (85 dB) in the room for 5 h, twice a week; flashing light (60 flashes/min) for 6 h, three times a week (AbdAlla et al., Biomed. Res. Int. 2015:917156 (2015); El-faramawy et al., Pharmacol. Biochem. Behav. 91, 339-344 (2009)). The sucrose preference test (2% sucrose in water) was done immediately after a period of food and water deprivation.
Symptoms of depression and anhedonia induced by the CUMS protocol as a typical model of depression were determined by the sucrose preference test. For the sucrose preference test, rats (or mice) were trained to consume a sucrose solution (2%), which was put in the cage with a bottle of water. The sucrose consumption was determined at baseline for two weeks before the CUMS protocol (1 test per week, for 1 h, at 9-10 a.m.), and after 4 weeks of CUMS immediately after a period of food (24 h) and water (12 h) deprivation. The ratio of the sucrose-to-water consumption was determined. […] Similarly, the treatment effect of illustrative compounds on prevention of symptoms of depression was assessed by the sucrose preference test. […]

[2] = test system: MPP1; experiment: Immunoblot of MPP1 content in PBMN cells of elderly human research participants; type: in vivo; conditions: 28 days, daily dose of 60 mg
Description: For protein separation by SDS-PAGE (Laemmli system), the protein pellet can be dissolved in SDS-PAGE sample buffer supplemented with SDS. As an alternative, sample buffer for native gel electrophoresis can be added. According to the original protocol, the SDS-PAGE Laemmli sample buffer contains 2% SDS, 0.1 M DTT (or 5% mercaptoethanol). To improve disaggregation of aggregated proteins, the buffer can be supplemented without or with urea ranging from about 0 M-8 M, preferably about 6 M urea and incubated for about 10 min to 24 h, preferably about 90 min at room temperature. Proteins can be stored frozen (about […]) at a concentration ranging from about 0.01-100 mg/ml, preferably about 0.5 mg-1 mg/ml, for further use. It may be further desirable to dilute the solubilisate, for example, diluting the supernatant solubilisate by 1:1-1:20, preferably 1:5, in a suitable buffer as described above (preferably supplemented with protease inhibitors). Before immunoblot detection of proteins, proteins are separated. For separation of proteins, one- or two-dimensional SDS-PAGE can be applied. […]

Row | Compound | sucrose consumption in sucrose preference test ([1]; 16-month-old rats, 4 weeks CUMS, vs non-stressed control group) | CUMS-induced anhedonia in sucrose preference test ([1]; young rats (aged 4 months)) | senescence marker protein MPP1 in PBMN cells vs before treatment [2]
1 | O=C(C1=C(O)C(c2ccccc2)N(c2ccc3c(c2)OCO3)C1=O)C1CC1 (stereo not drawn) [Compound-1, 1-(1,3-benzodioxol-5-yl)-4-(cyclopropane-carbonyl)-3-hydroxy-2-phenyl-2H-pyrrol-5-one] | not significantly different from the non-stressed control group | prevented the development of CUMS-induced anhedonia and symptoms of depression | 
2 | O=C(C1=C(O)C(c2ccc(F)cc2)N(c2ccc3c(c2)OCO3)C1=O)C1CC1 (stereo not drawn) [Compound-1F, 1-(1,3-Benzodioxol-5-yl)-4-(cyclopropanecarbonyl)-2-(4-fluorophenyl)-3-hydroxy-2H-pyrrol-5-one] |  |  | significant decrease
